From PMC8132114 (ACS combinatorial science, 2019)
*1 amine or outer side, *2 acyl side, *3 side chain or, on linkers, in order; H or OH if unused. Where a SMILES comes first, the peptide text is derived from it. [ ]: non-standard residue; d: D form. The star is where a group is joined. X1 = O=C([C@H](CCON=Cc1c(Cl)cncc1Cl)N[*:1])[*:2]; Biotin = O=C1N[C@H]2[C@H](CS[C@H]2CCCCC(=O)*)N1; pY = N[C@@H](Cc1ccc(OP(=O)(O)O)cc1)C(=O)O; Ahx = NCCCCCC(=O)O

Tests used:
VH1 [1] = type: biochemical
VH1 [2] = type: biochemical; remark: listed apart in the source
[3] = biological target: oxime-containing phosphopeptide 6f-w99; assay: SPR
[4] = biological target: oxime-containing phosphopeptide 6f-w202; assay: SPR

For Ac-OtGGOt-NH2 [Peptide 15], the “inhibition, VH1 compared with DUSP14” value (VH1 [1]) was “greater for VH1 than for DUSP14”.

`CC(C)[C@H](NC(=O)CCCCCNC(=O)CCCC[C@@H]1SC[C@@H]2NC(=O)N[C@@H]21)C(=O)N[C@@H](CC(=O)O)C(=O)N[C@@H](C)C(=O)N[C@@H](CC(=O)O)C(=O)N[C@@H](CCC(=O)O)C(=O)N[C@@H](Cc1ccc(OP(=O)(O)O)cc1)C(=O)N[C@@H](CCON=Cc1c(Cl)cncc1Cl)C(N)=O` [Peptide 6f-w202] ({Biotin-Ahx}-VDADE[pY][X1]-NH2) showed a percent dephosphorylation (VH1 [2]) of 43%.

B1: human DUSP14 C111S substrate-trapping mutant, O95147 1-198 (enzyme)
chain: MSSRGHSTLPRTLMAPRMISEGDIGGIAQITSSLFLGRGSVASNRHLLQARGITCIVNATIEIPNFNWPQFEYVKVPLADMPHAPIGLYFDTVADKIHSVSRKHGATLVHSAAGVSRSATLCIAYLMKFHNVCLLEAYNWVKARRPVIRPNVGFWRQLIDYERQLFGKSTVKMVQTPYGIVPDVYEKESRHLMPYWGI
With B1 the Kd [3] was 94 nM and the Kd [4] was 640 nM.
